Test results as given in patent US20050142192A1, “Oral administration of [2-(8,9-dioxo-2,6-diazabicyclo[5.2.0]non-1(7)-en-2-yl)alkyl] phosphonic acid and derivatives” (Wyeth, priority 2003, published 2005).
Where two headings read alike, the source gives them in different places.

Key:
[1] = ascending single-dose pharmacokinetic study in healthy subjects; assay type: in vivo, human; conditions: for AUC: t = 0 to ∞; for CL/F: read-out: mean oral-dose clearance (C1/F) (converted)
Method: A study was conducted as an ascending single-dose tolerance study with fasting administration of 500, 1000, 2000, and 4000 mg oral doses. In each cohort, 8 subjects received either placebo (2 subjects) or the prescribed dose of 2-(8,9-dioxo-2,6-diazabicyclo[5.2.0]non-1(7)-en-2-yl)ethyl]phosphonic acid (6 subjects). Subjects in the fasting 1000-mg cohort were crossed over to receive a 1000-mg postprandial dose in study period 2. Additionally, the 2000-mg dose level was repeated in a cohort of elderly subjects.

[2] = ascending multiple-dose pharmacokinetic study in healthy subjects; assay type: in vivo; conditions: human, plasma, po, mean ± SD; for half-life: read-out: T½ (converted)
Method: A study was conducted as an ascending multiple-dose tolerance study of 2-(8,9-dioxo-2,6-diazabicyclo[5.2.0]non-1(7)-en-2-yl)ethyl]phosphonic acid with administration of 200, 400, 800, and 1600 mg oral doses in healthy subjects over a 14-day period.

[3] = pH range of 4 to 8
[4] = ascending single-dose pharmacokinetic study in healthy subjects; assay type: in vivo; conditions: human, plasma, intravenous, 100 mg, 100 mg 1-hour, infusion, mean ± SD
[5] = system: Caco-2 cell; assay: Caco-2 cell permeability
[6] = apparent n-octanol/water partition coefficient
[7] = animal absorption study, oral bioavailability in rats; conditions: rat, in vivo, 100 mg/kg
[8] = animal absorption study, oral bioavailability in monkeys; conditions: monkey, in vivo, 100 mg/kg
[9] = 1000 mg, after standardized high-fat, high-calorie meal versus fasting
[10] = human, plasma, po, 500 mg, 500 mg Oral, fasting, single administration, healthy subjects, mean ± SD
[11] = human, plasma, po, 1000 mg, 1000 mg Oral, fasting, single administration, healthy subjects, mean ± SD
[12] = human, plasma, po, 1000 mg, 1000 mg Oral, fed (high-fat, high-calorie meal), single administration, healthy subjects, mean ± SD
[13] = human, plasma, po, 2000 mg, 2000 mg Oral, fasting (elderly), single administration, mean ± SD
[14] = human, plasma, po, 2000 mg, 2000 mg Oral, fasting, single administration, healthy adult subjects, mean ± SD
[15] = human, plasma, po, 4000 mg, 4000 mg Oral, fasting, single administration, healthy subjects, mean ± SD
[16] = 200 mg, Multiple dose administration (day 14), 200 mg q 12 h Oral, fed
[17] = 200 mg, Single dose administration, 200 mg Oral, fasting
[18] = 400 mg, Multiple dose administration (day 14), 400 mg q 12 h Oral, fasting
[19] = 400 mg, Single dose administration, 400 mg Oral, fasting
[20] = 800 mg, Multiple dose administration (day 14), 800 mg q 12 h Oral, fasting
[21] = 800 mg, Single dose administration, 800 mg Oral, fasting
[22] = 1600 mg, Multiple dose administration (day 14), 1600 mg q 12 h Oral, fasting
[23] = 1600 mg, Single dose administration, 1600 mg Oral, fasting

O=c1c2c(c1=O)N(CCP(=O)(O)O)CCCN2 [[2-(8,9-dioxo-2,6-diazabicyclo[5.2.0]non-1(7)-en-2-yl)ethyl]phosphonic acid]
lowering of mean Cmax by food [1, 9]: 67% | reduction of mean AUC by food [1, 9]: 57% | mean oral-dose clearance (C1/F), lower in elderly than in healthy adult subjects ([1]; 2000 mg, fasting, single-dose): approximately 10% | Tmax ([1]; human, plasma, intravenous, 100 mg, 100 mg 1-hour, infusion, healthy subjects, mean ± SD): 0.95 ± 0.11 h | half-life ([1]; human, plasma, intravenous, 100 mg, 100 mg 1-hour, infusion, healthy subjects, mean ± SD, read-out: T½ (converted)): 8.3 ± 8.8 h | Cmax [1, 10]: 320 ± 63 ng/mL | Tmax [1, 10]: 1.9 ± 0.7 h | half-life ([1]; human, plasma, po, 500 mg, 500 mg Oral, fasting, single administration, healthy subjects, mean ± SD, read-out: T½ (converted)): 6.7 ± 6.4 h | AUC [1, 10]: 2140 ± 542 ng·h/mL | Cmax [1, 11]: 1180 ng/mL | Tmax [1, 11]: 0.88 h | half-life ([1]; human, plasma, po, 1000 mg, 1000 mg Oral, fasting, single administration, healthy subjects, mean ± SD, read-out: T½ (converted)): 14.6 ± 9.3 h | AUC [1, 11]: 5130 ng·h/mL | Cmax [1, 12]: 392 ng/mL | Tmax [1, 12]: 2.92 h | half-life ([1]; human, plasma, po, 1000 mg, 1000 mg Oral, fed (high-fat, high-calorie meal), single administration, healthy subjects, mean ± SD, read-out: T½ (converted)): 16 ± 10 h | AUC [1, 12]: 2210 ng·h/mL | Cmax [1, 13]: 1610 ± 628 ng/mL | Tmax [1, 13]: 1.25 ± 0.61 h | half-life ([1]; human, plasma, po, 2000 mg, 2000 mg Oral, fasting (elderly), single administration, mean ± SD, read-out: T½ (converted)): 14.1 ± 11.1 h | AUC [1, 13]: 8890 ng·h/mL | Cmax [1, 14]: 1790 ± 1360 ng/mL | Tmax [1, 14]: 1.42 ± 0.96 h | half-life ([1]; human, plasma, po, 2000 mg, 2000 mg Oral, fasting, single administration, healthy adult subjects, mean ± SD, read-out: T½ (converted)): 6.4 ± 2 h | AUC [1, 14]: 7640 ng·h/mL | CL/F ([1]; human, plasma, po, 2000 mg, elderly subjects, 2000 mg, fasting, single-dose): 52.3 mL/min/kg | CL/F ([1]; human, plasma, po, 2000 mg, healthy adult subjects, 2000 mg, fasting, single-dose): 58.3 mL/min/kg | Cmax [1, 15]: 1490 ± 436 ng/mL | Tmax [1, 15]: 2.6 ± 1.08 h | half-life ([1]; human, plasma, po, 4000 mg, 4000 mg Oral, fasting, single administration, healthy subjects, mean ± SD, read-out: T½ (converted)): 9.1 ± 4.6 h | AUC [1, 15]: 8980 ± 1980 ng·h/mL | half-life ([1]; human, plasma, po, all cohorts, oral, fasting, estimates not always reliable, read-out: mean t1/2): 6 to 16 h | bioavailability ([1]; human, plasma, subjects in the first cohort (500 mg oral, 100 mg infusion), read-out: mean absolute bioavailability): 4.3% | Cmax [2, 16]: 153 ± 75 ng/mL | Tmax [2, 16]: 1.2 ± 0.3 h | half-life [2, 16]: 6.6 ± 3.9 h | AUC ([2]; 200 mg, Multiple dose administration (day 14), 200 mg q 12 h Oral, fed, t = 0 to 12 hours (tau)): 817 ± 265 ng·h/mL | Cmax [2, 17]: 172 ± 90 ng/mL | Tmax [2, 17]: 1.3 ± 0.5 h | half-life [2, 17]: 3.5 ± 0.6 h | AUC ([2]; 200 mg, Single dose administration, 200 mg Oral, fasting, t = 0 to ∞): 699 ± 201 ng·h/mL | Cmax [2, 18]: 398 ± 209 ng/mL | Tmax [2, 18]: 1.6 ± 1.3 h | half-life [2, 18]: 11.9 ± 10.4 h | AUC ([2]; 400 mg, Multiple dose administration (day 14), 400 mg q 12 h Oral, fasting, t = 0 to 12 hours (tau)): 1810 ± 747 ng·h/mL | Cmax [2, 19]: 346 ± 282 ng/mL | Tmax [2, 19]: 2 ± 1.6 h | half-life [2, 19]: 4.5 ± 1.2 h | AUC ([2]; 400 mg, Single dose administration, 400 mg Oral, fasting, t = 0 to ∞): 1490 ± 371 ng·h/mL | Cmax [2, 20]: 436 ± 151 ng/mL | Tmax [2, 20]: 1.4 ± 0.6 h | half-life [2, 20]: 16.9 ± 8.8 h | AUC ([2]; 800 mg, Multiple dose administration (day 14), 800 mg q 12 h Oral, fasting, t = 0 to 12 hours (tau)): 2180 ± 644 ng·h/mL | Cmax [2, 21]: 715 ± 524 ng/mL | Tmax [2, 21]: 1.4 ± 0.7 h | half-life [2, 21]: 8.3 ± 1.3 h | AUC ([2]; 800 mg, Single dose administration, 800 mg Oral, fasting, t = 0 to ∞): 3190 ± 800 ng·h/mL | Cmax [2, 22]: 1510 ± 842 ng/mL | Tmax [2, 22]: 1.4 ± 1.3 h | half-life [2, 22]: 10.5 ± 6.6 h | AUC ([2]; 1600 mg, Multiple dose administration (day 14), 1600 mg q 12 h Oral, fasting, t = 0 to 12 hours (tau)): 4910 ± 1210 ng·h/mL | Cmax [2, 23]: 962 ± 592 ng/mL | Tmax [2, 23]: 1.3 ± 1.3 h | half-life [2, 23]: 6.9 ± 1.7 h | AUC ([2]; 1600 mg, Single dose administration, 1600 mg Oral, fasting, t = 0 to ∞): 4060 ± 1320 ng·h/mL | solubility [3]: very soluble | Cmax [4]: 4010 ± 512 ng/mL | AUC ([4]; t = 0 to ∞): 10200 ± 1720 ng·h/mL | Caco-2 cell permeability [5]: poor | logP [6]: -1.37 | bioavailability [7]: ~1% | bioavailability [8]: ~2.5%
